Measurements taken from US9474758B2, “Thienopyrimidinedione derivatives as TRPA1 modulators” (Glenmark Pharmaceuticals S.A., priority 2009, dated 2016).
One block for each compound: values may come before it.

Assays:
[1] = molecular target: T1, Human TRPA1 expressing CHO cells (Homo sapiens, UniProt O75762); test: 45Calcium uptake assay, inhibition of AITC induced calcium uptake (human); assay type: cell-based; details: human TRPA1 CHO cells, AITC 30 μM; for inhibition at 1 µM: compound 1.0 μM, read-out: Percentage inhibition at 1.0 μM; for inhibition at 10 µM: compound 10.0 μM, read-out: Percentage inhibition at 10.0 μM; for IC50: read-out: Human IC50 value (Range)
T1 construct: expressed in transfected cells; host or cells: CHO cells (G-418 selection)
Protocol: (§1) Screening for TRPA1 Antagonist Using the ^45Calcium Uptake Assay:
(§2) The inhibition of TRPA1 receptor activation was measured as inhibition of allyl isothiocyanate (AITC) induced cellular uptake of radioactive calcium.
(§3) Test compounds were dissolved in 100% DMSO to prepare 10 mM stock and then diluted using plain medium with 0.1% BSA and 1.8 mM CaCl2 to get the desired concentration. The final concentration of DMSO in the reaction was 0.5% (v/v). […] Rat TRPA1 expressing CHO cells were grown in F-12 DMEM medium with 10% FBS, 1% penicillin-streptomycin solution, and 400 μg/ml of Zeocin. […] Cells were treated with the test compounds for 10 minutes followed by the addition of AITC at a final concentration of 30 μM (for human TRPA1) and/or 10 μM (for rat TRPA1) and 5 μCi/ml ^45Ca^+2 for 3 minutes. Cells were washed and lysed using a buffer containing 1% Triton X-100, 0.1% deoxycholate and 0.1% SDS. Radioactivity in the lysate was measured in a Packard TopCount after addition of liquid scintillant.
(§4) Concentration response curves were plotted as a % of maximal response obtained in the absence of test antagonist. IC50 values can be calculated from concentration response curve by nonlinear regression analysis using GraphPad PRISM software.

[2] = molecular target: T2, Rat TRPA1 expressing CHO cells (Rattus norvegicus, UniProt Q6RI86); test: 45Calcium uptake assay, inhibition of AITC induced calcium uptake (rat); assay type: cell-based; details: rat TRPA1 CHO cells, AITC 10 μM; for inhibition at 1 µM: compound 1.0 μM, read-out: Percentage inhibition at 1.0 μM; for inhibition at 10 µM: compound 10.0 μM, read-out: Percentage inhibition at 10.0 μM; for IC50: read-out: Rat IC50 value (Range)
T2 construct: expressed in transfected cells; host or cells: CHO cells (Zeocin selection)
Protocol: as §1, §2, §3, §4

T1 sequence (O75762 whole entry): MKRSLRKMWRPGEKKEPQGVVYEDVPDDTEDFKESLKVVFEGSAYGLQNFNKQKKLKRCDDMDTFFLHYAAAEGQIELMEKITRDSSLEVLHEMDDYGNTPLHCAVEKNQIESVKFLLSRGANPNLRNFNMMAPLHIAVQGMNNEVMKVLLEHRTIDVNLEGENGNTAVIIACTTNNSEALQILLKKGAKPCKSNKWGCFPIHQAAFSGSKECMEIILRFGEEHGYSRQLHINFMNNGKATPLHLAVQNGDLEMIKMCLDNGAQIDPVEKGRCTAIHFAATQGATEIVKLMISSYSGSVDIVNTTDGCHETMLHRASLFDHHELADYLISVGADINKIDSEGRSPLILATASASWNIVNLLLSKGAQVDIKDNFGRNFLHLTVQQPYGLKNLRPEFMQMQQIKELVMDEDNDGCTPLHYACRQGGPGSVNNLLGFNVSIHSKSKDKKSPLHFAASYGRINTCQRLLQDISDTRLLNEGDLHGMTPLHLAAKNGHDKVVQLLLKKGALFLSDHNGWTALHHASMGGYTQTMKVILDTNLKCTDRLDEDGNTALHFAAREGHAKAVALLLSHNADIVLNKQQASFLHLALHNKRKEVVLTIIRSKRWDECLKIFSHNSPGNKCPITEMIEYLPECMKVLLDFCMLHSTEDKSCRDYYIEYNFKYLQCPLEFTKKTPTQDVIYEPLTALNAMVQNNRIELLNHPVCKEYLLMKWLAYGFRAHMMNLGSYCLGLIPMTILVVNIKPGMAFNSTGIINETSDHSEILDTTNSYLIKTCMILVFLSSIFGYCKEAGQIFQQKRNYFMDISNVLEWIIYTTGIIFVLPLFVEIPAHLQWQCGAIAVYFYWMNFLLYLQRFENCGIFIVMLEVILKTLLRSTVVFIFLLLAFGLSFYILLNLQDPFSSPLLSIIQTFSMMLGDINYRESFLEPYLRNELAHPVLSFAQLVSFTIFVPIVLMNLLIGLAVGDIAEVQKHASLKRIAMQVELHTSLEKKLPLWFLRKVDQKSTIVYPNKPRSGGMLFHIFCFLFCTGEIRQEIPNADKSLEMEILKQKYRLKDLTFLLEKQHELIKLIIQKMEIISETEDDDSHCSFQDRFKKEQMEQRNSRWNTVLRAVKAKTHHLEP
T2 sequence (Q6RI86 whole entry): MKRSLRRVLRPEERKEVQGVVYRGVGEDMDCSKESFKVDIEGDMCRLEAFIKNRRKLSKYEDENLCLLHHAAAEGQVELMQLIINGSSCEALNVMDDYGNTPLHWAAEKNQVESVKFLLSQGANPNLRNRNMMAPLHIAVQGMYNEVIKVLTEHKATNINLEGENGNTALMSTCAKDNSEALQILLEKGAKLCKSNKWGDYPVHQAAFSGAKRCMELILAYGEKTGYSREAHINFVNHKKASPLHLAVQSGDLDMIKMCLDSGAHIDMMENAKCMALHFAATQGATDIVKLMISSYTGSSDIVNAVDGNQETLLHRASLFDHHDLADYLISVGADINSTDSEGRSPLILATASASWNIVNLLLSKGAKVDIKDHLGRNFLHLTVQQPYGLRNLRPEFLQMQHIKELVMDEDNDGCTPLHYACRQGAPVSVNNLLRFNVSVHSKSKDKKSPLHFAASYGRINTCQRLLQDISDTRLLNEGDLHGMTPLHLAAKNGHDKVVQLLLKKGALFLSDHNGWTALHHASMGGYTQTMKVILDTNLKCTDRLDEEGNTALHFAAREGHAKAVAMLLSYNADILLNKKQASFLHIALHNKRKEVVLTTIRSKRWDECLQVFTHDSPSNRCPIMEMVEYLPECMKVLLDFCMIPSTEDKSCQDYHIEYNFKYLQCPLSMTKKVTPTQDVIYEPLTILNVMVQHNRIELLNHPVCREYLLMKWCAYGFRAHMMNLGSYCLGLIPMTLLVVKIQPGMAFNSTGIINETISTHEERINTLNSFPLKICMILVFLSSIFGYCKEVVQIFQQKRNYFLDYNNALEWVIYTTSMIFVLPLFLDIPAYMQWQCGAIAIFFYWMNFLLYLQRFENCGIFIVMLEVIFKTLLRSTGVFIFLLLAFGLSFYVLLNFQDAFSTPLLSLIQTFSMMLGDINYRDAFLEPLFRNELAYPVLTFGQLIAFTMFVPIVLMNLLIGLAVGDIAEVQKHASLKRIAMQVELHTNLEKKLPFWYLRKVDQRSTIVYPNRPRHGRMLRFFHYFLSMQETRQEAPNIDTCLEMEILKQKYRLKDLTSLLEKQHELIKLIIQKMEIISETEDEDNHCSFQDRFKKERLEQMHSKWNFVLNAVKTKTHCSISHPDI

SMILES: CC(C)Cc1ccc(-c2csc(NC(=O)Cc3scc4c3c(=O)n(C)c(=O)n4C)n2)cc1 [Example 44, 2-(1,3-Dimethyl-2,4-dioxo-1,2,3,4-tetrahydrothieno[3,4-d]pyrimidin-5-yl)-N-[4-(4-isobutylphenyl)-1,3-thiazol-2-yl]acetamide]
inhibition at 1 µM [1]: 91.4%
inhibition at 10 µM [1]: 93.2%
IC50 [1]: 50 to 500 nM
inhibition at 1 µM [2]: 84.1%
inhibition at 10 µM [2]: 95.3%

SMILES: Cn1c(=O)c2c(CC(=O)Nc3nc(-c4ccc(Cl)cc4)cs3)scc2n(C)c1=O [Example 45, N-[4-(4-Chlorophenyl)-1,3-thiazol-2-yl]-2-(1,3-dimethyl-2,4-dioxo-1,2,3,4-tetrahydrothieno[3,4-d]pyrimidin-5-yl)acetamide]
inhibition at 1 µM [1]: 94%
inhibition at 10 µM [1]: 98.9%
IC50 [1]: 50 to 500 nM
inhibition at 1 µM [2]: 66.2%
inhibition at 10 µM [2]: 94.8%

SMILES: Cn1c(=O)c2c(CC(=O)Nc3nc(-c4cccc(OC(F)(F)F)c4)cs3)scc2n(C)c1=O [Example 48, 2-(1,3-Dimethyl-2,4-dioxo-1,2,3,4-tetrahydrothieno[3,4-d]pyrimidin-5-yl)-N-{4-[3-(trifluoromethoxy)phenyl]-1,3-thiazol-2-yl}acetamide]
inhibition at 1 µM [1]: 95.5%
inhibition at 10 µM [1]: 98.9%
IC50 [1]: 50 to 500 nM
inhibition at 1 µM [2]: 92.5%
inhibition at 10 µM [2]: 100%

SMILES: Cn1c(=O)c2c(CC(=O)Nc3nc(-c4ccc(C(F)(F)F)cc4F)cs3)scc2n(C)c1=O [Example 51, 2-(1,3-Dimethyl-2,4-dioxo-1,2,3,4-tetrahydrothieno[3,4-d]pyrimidin-5-yl)-N-{4-[2-fluoro-4-(trifluoromethyl)phenyl]-1,3-thiazol-2-yl}acetamide]
inhibition at 1 µM [1]: 96.9%
inhibition at 10 µM [1]: 99.7%
IC50 [1]: < 50 nM
inhibition at 1 µM [2]: 93%
inhibition at 10 µM [2]: 100%
IC50 [2]: 50 to 500 nM

SMILES: Cn1c(=O)c2c(CC(=O)Nc3nc(-c4ccc(OC(F)(F)F)c(F)c4)cs3)scc2n(C)c1=O [Example 52, 2-(1,3-Dimethyl-2,4-dioxo-1,2,3,4-tetrahydrothieno[3,4-d]pyrimidin-5-yl)-N-{4-[3-fluoro-4-(trifluoromethoxy)phenyl]-1,3-thiazol-2-yl}acetamide]
inhibition at 1 µM [1]: 98%
inhibition at 10 µM [1]: 94.4%
IC50 [1]: < 50 nM
inhibition at 1 µM [2]: 92.3%
inhibition at 10 µM [2]: 98.1%
IC50 [2]: 50 to 500 nM

SMILES: Cn1c(=O)c2c(CC(=O)Nc3nc(-c4ccc(Cl)c(Cl)c4)cs3)scc2n(C)c1=O [Example 53, N-[4-(3,4-Dichlorophenyl)-1,3-thiazol-2-yl]-2-(1,3-dimethyl-2,4-dioxo-1,2,3,4-tetrahydrothieno[3,4-d]pyrimidin-5-yl)acetamide]
inhibition at 1 µM [1]: 97.8%
inhibition at 10 µM [1]: 99.3%
IC50 [1]: 50 to 500 nM
inhibition at 1 µM [2]: 42.7%
inhibition at 10 µM [2]: 97.9%

SMILES: Cn1c(=O)c2c(CC(=O)Nc3nc(-c4cc(F)cc(C(F)(F)F)c4)cs3)scc2n(C)c1=O [Example 54, 2-(1,3-Dimethyl-2,4-dioxo-1,2,3,4-tetrahydrothieno[3,4-d]pyrimidin-5-yl)-N-{4-[3-fluoro-5-(trifluoromethyl)phenyl]-1,3-thiazol-2-yl}acetamide]
inhibition at 1 µM [1]: 95.1%
inhibition at 10 µM [1]: 99.7%
IC50 [1]: < 50 nM
inhibition at 1 µM [2]: 41.6%
inhibition at 10 µM [2]: 91.8%

SMILES: Cn1c(=O)c2c(CC(=O)Nc3nc(-c4ccc(F)c(OC(F)(F)F)c4)cs3)scc2n(C)c1=O [Example 55, 2-(1,3-Dimethyl-2,4-dioxo-1,2,3,4-tetrahydrothieno[3,4-d]pyrimidin-5-yl)-N-{4-[4-fluoro-3-(trifluoromethoxy)phenyl]-1,3-thiazol-2-yl}acetamide]
inhibition at 1 µM [1]: 99.6%
inhibition at 10 µM [1]: 99.8%
IC50 [1]: < 50 nM
inhibition at 1 µM [2]: 70.4%
inhibition at 10 µM [2]: 99.9%

SMILES: Cn1c(=O)c2c(CC(=O)Nc3nc(-c4ccc(C(F)(F)F)c(F)c4F)cs3)scc2n(C)c1=O [Example 56, N-{4-[2,3-Difluoro-4-(trifluoromethyl)phenyl]-1,3-thiazol-2-yl}-2-(1,3-dimethyl-2,4-dioxo-1,2,3,4-tetrahydrothieno[3,4-d]pyrimidin-5-yl)acetamide]
inhibition at 1 µM [1]: 94.4%
inhibition at 10 µM [1]: 99.5%
IC50 [1]: < 50 nM
inhibition at 1 µM [2]: 96.9%
inhibition at 10 µM [2]: 100%
IC50 [2]: 50 to 500 nM

SMILES: Cn1c(=O)c2c(CC(=O)Nc3nc(-c4ccc(F)c(C(F)(F)F)c4F)cs3)scc2n(C)c1=O [Example 57, N-{4-[2,4-Difluoro-3-(trifluoromethyl)phenyl]-1,3-thiazol-2-yl}-2-(1,3-dimethyl-2,4-dioxo-1,2,3,4-tetrahydrothieno[3,4-d]pyrimidin-5-yl)acetamide]
inhibition at 1 µM [1]: 96.9%
inhibition at 10 µM [1]: 91%
IC50 [1]: < 50 nM
inhibition at 1 µM [2]: 97%
inhibition at 10 µM [2]: 100%
IC50 [2]: < 50 nM

SMILES: Cn1c(=O)c2c(CC(=O)Nc3nc(-c4cc(F)c(C(F)(F)F)c(F)c4)cs3)scc2n(C)c1=O [Example 58, N-{4-[3,5-difluoro-4-(trifluoromethyl)phenyl]-1,3-thiazol-2-yl}-2-(1,3-dimethyl-2,4-dioxo-1,2,3,4-tetrahydrothieno[3,4-d]pyrimidin-5-yl)acetamide]
inhibition at 1 µM [1]: 84.9%
inhibition at 10 µM [1]: 95.8%
IC50 [1]: < 50 nM
inhibition at 1 µM [2]: 71.1%
inhibition at 10 µM [2]: 71.7%

Further lines, results first:

inhibition at 1 µM [1]: 99.1%
inhibition at 10 µM [1]: 100%
IC50 [1]: < 50 nM
inhibition at 1 µM [2]: 90.1%
inhibition at 10 µM [2]: 98.3%
IC50 [2]: 50 to 500 nM
SMILES: CCCc1sc2c(c1CC(=O)Nc1nc(-c3ccc(C(F)(F)F)c(F)c3)cs1)c(=O)n(C)c(=O)n2C [Example 35, N-{4-[3-Fluoro-4-(trifluoromethyl)phenyl]-1,3-thiazol-2-yl}-2-(1,3-dimethyl-2,4-dioxo-6-propyl-1,2,3,4-tetrahydrothieno[2,3-d]pyrimidin-5-yl) acetamide]

inhibition at 1 µM [1]: 98.9%
inhibition at 10 µM [1]: 99.8%
IC50 [1]: < 50 nM
inhibition at 1 µM [2]: 99.1%
inhibition at 10 µM [2]: 99.5%
IC50 [2]: 50 to 500 nM
SMILES: CCCc1sc2c(c1CC(=O)Nc1nc(-c3cc(F)c(OC(F)F)c(F)c3)cs1)c(=O)n(C)c(=O)n2C [Example 36, N-{4-[4-Difluoromethoxy-3,5-difluorophenyl]-1,3-thiazol-2-yl}-2-(1,3-dimethyl-2,4-dioxo-6-propyl-1,2,3,4-tetrahydrothieno[2,3-d]pyrimidin-5-yl) acetamide]

inhibition at 1 µM [1]: 99%
inhibition at 10 µM [1]: 97.7%
IC50 [1]: < 50 nM
inhibition at 1 µM [2]: 94.9%
inhibition at 10 µM [2]: 97%
IC50 [2]: < 50 nM
SMILES: CC(C)c1sc2c(c1CC(=O)Nc1nc(-c3ccc(C(F)(F)F)c(F)c3)cs1)c(=O)n(C)c(=O)n2C [Example 37, N-{4-[3-Fluoro-4-(trifluoromethyl)phenyl]-1,3-thiazol-2-yl}-2-(6-isopropyl-1,3-dimethyl-2,4-dioxo-1,2,3,4-tetrahydrothieno[2,3-d]pyrimidin-5-yl)acetamide]

inhibition at 1 µM [1]: 93.9%
inhibition at 10 µM [1]: 98.5%
IC50 [1]: < 50 nM
inhibition at 1 µM [2]: 93.2%
inhibition at 10 µM [2]: 99.7%
IC50 [2]: 50 to 500 nM
SMILES: Cn1c(=O)c2c(CC(=O)Nc3nc(-c4cccc(C(F)(F)F)c4)cs3)scc2n(C)c1=O [Example 46]

inhibition at 1 µM [1]: 97.9%
inhibition at 10 µM [1]: 98.8%
IC50 [1]: < 50 nM
inhibition at 1 µM [2]: 88.9%
inhibition at 10 µM [2]: 99.6%
SMILES: Cn1c(=O)c2c(CC(=O)Nc3nc(-c4ccc(C(F)(F)F)cc4)cs3)scc2n(C)c1=O [Example 47]

inhibition at 1 µM [1]: 96%
inhibition at 10 µM [1]: 99.8%
IC50 [1]: < 50 nM
inhibition at 1 µM [2]: 89.9%
inhibition at 10 µM [2]: 99%
IC50 [2]: 50 to 500 nM
SMILES: Cn1c(=O)c2c(CC(=O)Nc3nc(-c4ccc(F)c(C(F)(F)F)c4)cs3)scc2n(C)c1=O [Example 49, 2-(1,3-Dimethyl-2,4-dioxo-1,2,3,4-tetrahydrothieno[3,4-d]pyrimidin-5-yl)-N-{4-[4-fluoro-3-(trifluoromethyl)phenyl]-1,3-thiazol-2-yl}acetamide]

inhibition at 1 µM [1]: 99.5%
inhibition at 10 µM [1]: 100%
IC50 [1]: < 50 nM
inhibition at 1 µM [2]: 57.4%
inhibition at 10 µM [2]: 99.1%
SMILES: Cn1c(=O)c2c(CC(=O)Nc3nc(-c4ccc(C(F)(F)F)c(F)c4)cs3)scc2n(C)c1=O [Example 50, 2-(1,3-Dimethyl-2,4-dioxo-1,2,3,4-tetrahydrothieno[3,4-d]pyrimidin-5-yl)-N-{4-[3-fluoro-4-(trifluoromethyl)phenyl]-1,3-thiazol-2-yl}acetamide]
